Assay results from publication PMC6522510 (Nature Communications, 2019).
Where a name gives a salt, the structure may show the parent alone. Read-outs that look alike come from different tables or passages of the source.

Assays:
Design in all cases: species or system AML cell lines (8); Primary HTS, single concentration about 10 uM, Cell Titer Glo viability; log10 luminescence, per cent inhibition relative to cycloheximide control
Conditions in all cases: 72 h, relative to cycloheximide control, log10 luminescence, inhibitor
[1] = tested on: MOLM-13
[2] = tested on: CMK
[3] = tested on: ML-2
[4] = tested on: CHRF288-11
[5] = tested on: CMS
[6] = tested on: U937
[7] = tested on: M07e
[8] = tested on: MV4-11

For `CC1/C=C/C=C/C=C/C=C/C=C/C=C/C=C/C(OC2O[C@H](C)[C@@H](O)[C@H](N)[C@@H]2O)CC(O)C(C(=O)O)C(O)CC(=O)CC(O)CC(O)CC(O)CC(=O)CCCC(=O)CC(=O)OC1C(C)CC(C)C(O)CC(=O)c1ccc(N)cc1` (single isomer, unassigned) [SJ000565161-1, CANDICIDIN], the MOLM-13 %inh ([1]; MOLM-13 %inh, 10 µM) was 72.78%, the CMK %inh ([2]; CMK %inh, 10 µM) was 120.6% and the ML-2 %inh ([3]; ML-2 %inh, 10 µM) was 42.43%. It also gave a CHRF288-11 %inh ([4]; CHRF288-11 %inh, 10 µM) of 56.49%, a CMS %inh ([5]; CMS %inh, 10 µM) of 12.57% and a U937 %inh ([6]; U937 %inh, 10 µM) of 16.5%. The M07e %inh ([7]; M07e %inh, 10 µM) was 2.094% and the MV4-11 %inh ([8]; MV4-11 %inh, 10 µM) was 39.81%.

`CC1/C=C/C=C/C=C/C=C/C=C/C=C/C=C/C(OC2O[C@H](C)[C@@H](O)[C@H](N)[C@@H]2O)CC(O)C(C(=O)O)C(O)CC(=O)CC(O)CC(O)CC(O)CC(=O)CCCC(=O)CC(=O)OC1C(C)CC(C)C(O)CC(=O)c1ccc(N)cc1` (single isomer, unassigned) [SJ000565161-2, CANDICIDIN] gave an MOLM-13 %inh ([1]; MOLM-13 %inh, 10 µM) of 0.5936%, a CMK %inh ([2]; CMK %inh, 10 µM) of -1.968% and an ML-2 %inh ([3]; ML-2 %inh, 10 µM) of -0.08515%. It also gave a CHRF288-11 %inh ([4]; CHRF288-11 %inh, 10 µM) of 84.68%, a CMS %inh ([5]; CMS %inh, 10 µM) of 0.8019% and a U937 %inh ([6]; U937 %inh, 10 µM) of -1.702%. It also gave an M07e %inh ([7]; M07e %inh, 10 µM) of -1.61% and an MV4-11 %inh ([8]; MV4-11 %inh, 10 µM) of 0.2404%.

In the case of `O=c1ncnc2n([C@H]3O[C@@H](CO)[C@H](O)[C@@H]3O)[nH]cc1-2` (stereo in doubt) [SJ000562682-1, ALLOPURINOL RIBOSIDE], the MOLM-13 %inh [1] was 4.507%, the CMK %inh [2] was 1.077% and the ML-2 %inh [3] was 0.3274%. For the same compound, the CHRF288-11 %inh [4] was 1.868%, the CMS %inh [5] was -1.89% and the U937 %inh [6] was 0.8426%. It also gave an M07e %inh [7] of -1.058% and an MV4-11 %inh [8] of 0.9814%.

With `CO[C@H]1/C=C/O[C@@]2(C)Oc3c(C)c(O)c4c(O)c(c(/C=N/N5CCN(C)CC5)c(O)c4c3C2=O)NC(=O)/C(C)=C\C=C\[C@H](C)[C@H](O)[C@@H](C)[C@@H](O)[C@@H](C)[C@H](OC(C)=O)[C@@H]1C` [SJ000000850-5, RIFAMPIN | RIFAMPICIN] the MOLM-13 %inh ([1]; MOLM-13 %inh, 10 µM) was -1.813%, the CMK %inh ([2]; CMK %inh, 10 µM) was -4.011% and the ML-2 %inh ([3]; ML-2 %inh, 10 µM) was 5.116%. For the same compound, the CHRF288-11 %inh ([4]; CHRF288-11 %inh, 10 µM) was 0.3238%, the CMS %inh ([5]; CMS %inh, 10 µM) was 9.631% and the U937 %inh ([6]; U937 %inh, 10 µM) was 3.295%. The M07e %inh ([7]; M07e %inh, 10 µM) was 0.4502% and the MV4-11 %inh ([8]; MV4-11 %inh, 10 µM) was 3.37%.

Compound `CO[C@H]1/C=C/O[C@@]2(C)Oc3c(C)c(O)c4c(O)c(c(/C=N/N5CCN(C)CC5)c(O)c4c3C2=O)NC(=O)/C(C)=C\C=C\[C@H](C)[C@H](O)[C@@H](C)[C@@H](O)[C@@H](C)[C@H](OC(C)=O)[C@@H]1C` [SJ000000850-6, RIFAMPIN | RIFAMPICIN] has an MOLM-13 %inh ([1]; MOLM-13 %inh, 10 µM) of 5.052%, a CMK %inh ([2]; CMK %inh, 10 µM) of -0.3986% and an ML-2 %inh ([3]; ML-2 %inh, 10 µM) of 3.762%. For the same compound, the CHRF288-11 %inh ([4]; CHRF288-11 %inh, 10 µM) was 0.456%, the CMS %inh ([5]; CMS %inh, 10 µM) was 11.96% and the U937 %inh ([6]; U937 %inh, 10 µM) was 3.577%. For the same compound, the M07e %inh ([7]; M07e %inh, 10 µM) was 0.5367% and the MV4-11 %inh ([8]; MV4-11 %inh, 10 µM) was 5.189%.

`CO[C@H]1/C=C/O[C@@]2(C)Oc3c(C)c(O)c4c(O)c(c(/C=N/N5CCN(C)CC5)c(O)c4c3C2=O)NC(=O)/C(C)=C\C=C\[C@H](C)[C@H](O)[C@@H](C)[C@@H](O)[C@@H](C)[C@H](OC(C)=O)[C@@H]1C` [SJ000000850-7, RIFAMPIN | RIFAMPICIN] gave an MOLM-13 %inh ([1]; MOLM-13 %inh, 10 µM) of 4.02%, a CMK %inh ([2]; CMK %inh, 10 µM) of 0.4994% and an ML-2 %inh ([3]; ML-2 %inh, 10 µM) of 2.607%. For the same compound, the CHRF288-11 %inh ([4]; CHRF288-11 %inh, 10 µM) was 22.26%, the CMS %inh ([5]; CMS %inh, 10 µM) was 16.96% and the U937 %inh ([6]; U937 %inh, 10 µM) was 2.422%. For the same compound, the M07e %inh ([7]; M07e %inh, 10 µM) was 2.856% and the MV4-11 %inh ([8]; MV4-11 %inh, 10 µM) was 6.955%.

`COc1cc2nc(N3CCN(C(=O)C4COc5ccccc5O4)CC3)nc(N)c2cc1OC` (centres unmarked) [SJ000113084-6, DOXAZOSIN MESYLATE] showed an MOLM-13 %inh [1] of 9.986%, a CMK %inh [2] of 9.497% and an ML-2 %inh [3] of -0.964%. The CHRF288-11 %inh [4] was 36.53%, the CMS %inh [5] was 0.401% and the U937 %inh [6] was 1.071%. It also gave an M07e %inh [7] of -1.557% and an MV4-11 %inh [8] of -1.195%.

With `N#Cc1c(NC(=O)c2ccccc2F)sc2c1CCCC2` [SJ000121296-2, R15619/66/1] the MOLM-13 %inh [1] was 0.9257%, the CMK %inh [2] was 11.25% and the ML-2 %inh [3] was 8%. It also gave a CHRF288-11 %inh [4] of 1.937%, a CMS %inh [5] of 2.048% and a U937 %inh [6] of 21.81%. For the same compound, the M07e %inh [7] was 15.03% and the MV4-11 %inh [8] was -1.785%.

`CC(=O)[C@H]1CC[C@H]2[C@@H]3CC=C4C[C@@H](O)CC[C@]4(C)[C@H]3CC[C@]12C` [SJ000281777-6, PREGNENOLONE] was tested, and the MOLM-13 %inh [1] was 2.085%, the CMK %inh [2] was -1.238% and the ML-2 %inh [3] was 0.5574%. The CHRF288-11 %inh [4] was 0.2511%, the CMS %inh [5] was 6.885% and the U937 %inh [6] was 3.219%. The M07e %inh [7] was 1.706% and the MV4-11 %inh [8] was 6.672%.

`O=c1oc2ccccc2c(O)c1Cc1c(O)c2ccccc2oc1=O` [SJ000285189-5, DICUMAROL] gave an MOLM-13 %inh ([1]; MOLM-13 %inh, 10 µM) of -3.706%, a CMK %inh ([2]; CMK %inh, 10 µM) of -3.554% and an ML-2 %inh ([3]; ML-2 %inh, 10 µM) of -1.314%. It also gave a CHRF288-11 %inh ([4]; CHRF288-11 %inh, 10 µM) of 8.973%, a CMS %inh ([5]; CMS %inh, 10 µM) of -1.99% and a U937 %inh ([6]; U937 %inh, 10 µM) of -0.6%. The M07e %inh ([7]; M07e %inh, 10 µM) was -2.456% and the MV4-11 %inh ([8]; MV4-11 %inh, 10 µM) was -2.098%.

For `O=c1oc2ccccc2c(O)c1Cc1c(O)c2ccccc2oc1=O` [SJ000285189-6, DICUMAROL], the MOLM-13 %inh ([1]; MOLM-13 %inh, 10 µM) was 0.9251%, the CMK %inh ([2]; CMK %inh, 10 µM) was -0.9245% and the ML-2 %inh ([3]; ML-2 %inh, 10 µM) was -0.8259%. For the same compound, the CHRF288-11 %inh ([4]; CHRF288-11 %inh, 10 µM) was 3.41%, the CMS %inh ([5]; CMS %inh, 10 µM) was -1.661% and the U937 %inh ([6]; U937 %inh, 10 µM) was -0.6405%. The M07e %inh ([7]; M07e %inh, 10 µM) was 0.4208% and the MV4-11 %inh ([8]; MV4-11 %inh, 10 µM) was 0.4793%.

Compound `C[C@H]1O[C@@H](O[C@H]2[C@@H](O)C[C@H](O[C@H]3[C@@H](O)C[C@H](O[C@H]4CC[C@@]5(C)[C@H](CC[C@@H]6[C@@H]5CC[C@]5(C)[C@@H](C7=CC(=O)OC7)CC[C@]65O)C4)O[C@@H]3C)O[C@@H]2C)C[C@H](O)[C@@H]1O` [SJ000285233-4, DIGITOXIN] has an MOLM-13 %inh ([1]; MOLM-13 %inh, 10 µM) of 81.14%, a CMK %inh ([2]; CMK %inh, 10 µM) of 102% and an ML-2 %inh ([3]; ML-2 %inh, 10 µM) of 57.88%. It also gave a CHRF288-11 %inh ([4]; CHRF288-11 %inh, 10 µM) of 102.9%, a CMS %inh ([5]; CMS %inh, 10 µM) of 96.1% and a U937 %inh ([6]; U937 %inh, 10 µM) of 77.98%. For the same compound, the M07e %inh ([7]; M07e %inh, 10 µM) was 114.3% and the MV4-11 %inh ([8]; MV4-11 %inh, 10 µM) was 82.27%.

In the case of `C[C@H]1O[C@@H](O[C@H]2[C@@H](O)C[C@H](O[C@H]3[C@@H](O)C[C@H](O[C@H]4CC[C@@]5(C)[C@H](CC[C@@H]6[C@@H]5CC[C@]5(C)[C@@H](C7=CC(=O)OC7)CC[C@]65O)C4)O[C@@H]3C)O[C@@H]2C)C[C@H](O)[C@@H]1O` [SJ000285233-5, DIGITOXIN], the MOLM-13 %inh ([1]; MOLM-13 %inh, 10 µM) was 87.24%, the CMK %inh ([2]; CMK %inh, 10 µM) was 108.7% and the ML-2 %inh ([3]; ML-2 %inh, 10 µM) was 58.4%. For the same compound, the CHRF288-11 %inh ([4]; CHRF288-11 %inh, 10 µM) was 112.4%, the CMS %inh ([5]; CMS %inh, 10 µM) was 97.86% and the U937 %inh ([6]; U937 %inh, 10 µM) was 78.87%. It also gave an M07e %inh ([7]; M07e %inh, 10 µM) of 112.2% and an MV4-11 %inh ([8]; MV4-11 %inh, 10 µM) of 76.58%.

Work on `Cn1cnc([N+](=O)[O-])c1Sc1ncnc2[nH]cnc12` [SJ000285241-8, AZATHIOPRINE] yielded an MOLM-13 %inh [1] of 36.41%, a CMK %inh [2] of 49.74% and an ML-2 %inh [3] of 14.66%. It also gave a CHRF288-11 %inh [4] of 14.99%, a CMS %inh [5] of 0.5483% and a U937 %inh [6] of -0.6587%. For the same compound, the M07e %inh [7] was 7.374% and the MV4-11 %inh [8] was 14.19%.

`Cc1ccc2cc3c(ccc4ccccc43)c3c2c1CC3` [SJ000285253-3, 3-METHYLCHOLANTHRENE] showed an MOLM-13 %inh [1] of 2.389%, a CMK %inh [2] of 1.143% and an ML-2 %inh [3] of 4.978%. For the same compound, the CHRF288-11 %inh [4] was 5.022%, the CMS %inh [5] was 3.804% and the U937 %inh [6] was 0.01725%. The M07e %inh [7] was 0.9432% and the MV4-11 %inh [8] was 4.129%.

Work on `Oc1c(Cl)cc(Cl)c(Cl)c1Cc1c(O)c(Cl)cc(Cl)c1Cl` [SJ000285273-4, HEXACHLOROPHENE] yielded an MOLM-13 %inh [1] of 75.15%, a CMK %inh [2] of 117.7% and an ML-2 %inh [3] of 15.89%. The CHRF288-11 %inh [4] was 23.59%, the CMS %inh [5] was 32.47% and the U937 %inh [6] was 24.03%. For the same compound, the M07e %inh [7] was 10.84% and the MV4-11 %inh [8] was 7.526%.
